From patent US10759816B2, “Heterocyclic compounds as RSV inhibitors” (Enanta Pharmaceuticals, Inc., priority 2016, dated 2020)

System: genotype A, "Long" strain RSV
Experiment: RSV-A in vitro cytoprotection assay in HEp-2 cells (ATPlite readout of cell viability)
Type: cell-based, Human respiratory syncytial virus
Conditions: human respiratory syncytial virus, HEp-2, HEp-2 cells, genotype A “Long” strain RSV, cytoprotection; read-out: Human RSV-A (“Long” strain) EC50
Procedure, shortened: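 Cytoprotection measured as ATP-based luminescence (ATPlite) after 4-day incubation of RSV Long-infected HEp-2 cells (8,000/well, 10% FBS DMEM) with 2-fold serial compound dilutions in duplicate. Identically treated virus-free plate gives cytotoxicity; EC50 calculated from viability.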

Compound	EC50
Cc1cccc(F)c1NC(=O)c1cc2c(s1)-c1ccccc1N(C(=O)c1cccc(N3CCOc4ccccc4C3)n1)CC2 [Example 363]	< 0.4 µM
Cc1cccc(F)c1NC(=O)c1cc2c(s1)-c1ccccc1N(C(=O)c1cccc(N3CCOc4ccccc4C3C)n1)CC2 (stereo not drawn) [Example 364]	> 0.8 µM
Cc1cccc(F)c1NC(=O)c1cc2c(s1)-c1ccccc1N(C(=O)c1cccc(N3CCOc4c(F)cccc4C3)n1)CC2 [Example 365]	< 0.4 µM
COc1ccc2c(c1)OCCN(c1cccc(C(=O)N3CCc4cc(C(=O)Nc5c(C)cccc5F)sc4-c4ccccc43)n1)C2 [Example 366]	< 0.4 µM
Cc1cccc(F)c1NC(=O)c1cc2c(s1)-c1ccccc1N(C(=O)c1cccc(N3CCOc4ccc(Br)cc4C3)n1)CC2 [Example 367]	< 0.4 µM
Cc1cccc(F)c1NC(=O)c1cc2c(s1)-c1ccccc1N(C(=O)c1cccc(N3CCOc4cccc(F)c4C3)n1)CC2 [Example 368]	< 0.4 µM
Cc1cccc(F)c1NC(=O)c1cc2c(s1)-c1ccccc1N(C(=O)c1cccc(N3CCOc4cccc(Br)c4C3)n1)CC2 [Example 369]	0.4 to 0.8 µM
Cc1cccc(F)c1NC(=O)c1cc2c(s1)-c1ccccc1N(C(=O)c1cccc(N(C)CCNC(=O)OC(C)(C)C)n1)CC2 [Example 370]	0.4 to 0.8 µM
Cc1cccc(F)c1NC(=O)c1cc2c(s1)-c1ccccc1N(C(=O)c1cccc(N(C)CCN)n1)CC2 [Example 371]	0.4 to 0.8 µM
CC(=O)NCCN(C)c1cccc(C(=O)N2CCc3cc(C(=O)Nc4c(C)cccc4F)sc3-c3ccccc32)n1 [Example 372]	0.4 to 0.8 µM
COC(C)(C)CNc1cccc(C(=O)N2CCc3cc(C(=O)Nc4c(C)cccc4F)sc3-c3ccccc32)n1 [Example 373]	< 0.4 µM
Cc1cccc(F)c1NC(=O)c1cc2c(s1)-c1ccccc1N(C(=O)c1cccc(N3CCC4C(C3)C4(F)F)n1)CC2 (stereo not drawn) [Example 374]	0.4 to 0.8 µM
Cc1cccc(F)c1NC(=O)c1cc2c(s1)-c1ccccc1N(C(=O)c1cccc(N3CCCC(C)(C)CC3)n1)CC2 [Example 375]	0.4 to 0.8 µM
Cc1cccc(F)c1NC(=O)c1cc2c(s1)-c1ccccc1N(C(=O)c1cccc(N3C[C@H]4COC[C@H]4C3)n1)CC2 [Example 376]	> 0.8 µM
Cc1cccc(F)c1NC(=O)c1cc2c(s1)-c1ccccc1N(C(=O)c1cccc(N3CCCN(S(C)(=O)=O)c4ccccc43)n1)CC2 [Example 377]	> 0.8 µM
CC(=O)N1CCCN(c2cccc(C(=O)N3CCc4cc(C(=O)Nc5c(C)cccc5F)sc4-c4ccccc43)n2)c2ccccc21 [Example 378]	< 0.4 µM
Cc1cccc(F)c1NC(=O)c1cc2c(s1)-c1ccccc1N(C(=O)c1cccc(N3CCN(S(C)(=O)=O)Cc4ccccc43)n1)CC2 [Example 379]	> 0.8 µM
Cc1cccc(F)c1NC(=O)c1cc2c(s1)-c1ccccc1N(C(=O)c1cccc(N3CCCN(C(=O)OC(C)(C)C)CC3)n1)CC2 [Example 380]	< 0.4 µM
Cc1cccc(F)c1NC(=O)c1cc2c(s1)-c1ccccc1N(C(=O)c1cccc(N3CCCNCC3)n1)CC2 [Example 381]	> 0.8 µM
Cc1cccc(F)c1NC(=O)c1cc2c(s1)-c1ccccc1N(C(=O)c1cccc(N3CCCN(S(=O)(=O)C4CC4)CC3)n1)CC2 [Example 382]	< 0.4 µM
Cc1cccc(F)c1NC(=O)c1cc2c(s1)-c1ccccc1N(C(=O)c1cccc(N3CCCN(S(=O)(=O)C4(C)CC4)CC3)n1)CC2 [Example 383]	< 0.4 µM

Compound	EC50
Cc1cccc(F)c1NC(=O)c1cc2c(s1)-c1ccccc1N(C(=O)c1cccc(N3CCCN(S(C)(=O)=O)CC3)n1)CC2 [Example 384]	< 0.4 µM
Cc1cccc(F)c1NC(=O)c1cc2c(s1)-c1ccccc1N(C(=O)c1cccc(N3CCCN(S(=O)(=O)C4CCCCC4)CC3)n1)CC2 [Example 385]	< 0.4 µM
Cc1cccc(F)c1NC(=O)c1cc2c(s1)-c1ccccc1N(C(=O)c1cccc(N3CCCN(S(=O)(=O)c4ccccc4)CC3)n1)CC2 [Example 386]	< 0.4 µM
CC(=O)N1CCCN(c2cccc(C(=O)N3CCc4cc(C(=O)Nc5c(C)cccc5F)sc4-c4ccccc43)n2)CC1 [Example 387]	< 0.4 µM
Cc1cccc(F)c1NC(=O)c1cc2c(s1)-c1ccccc1N(C(=O)c1cccc(N3CCCN(C(=O)C4CC4)CC3)n1)CC2 [Example 388]	< 0.4 µM
Cc1cccc(F)c1NC(=O)c1cc2c(s1)-c1ccccc1N(C(=O)c1cccc(N3C[C@@H](NC(=O)OC(C)(C)C)C[C@@H]3C)n1)CC2 [Example 389]	< 0.4 µM
Cc1cccc(F)c1NC(=O)c1cc2c(s1)-c1ccccc1N(C(=O)c1cccc(N3C[C@@H](N)C[C@@H]3C)n1)CC2 [Example 390]	> 0.8 µM
COC(=O)N[C@H]1C[C@H](C)N(c2cccc(C(=O)N3CCc4cc(C(=O)Nc5c(C)cccc5F)sc4-c4ccccc43)n2)C1 [Example 391]	< 0.4 µM
Cc1cccc(F)c1NC(=O)c1cc2c(s1)-c1ccccc1N(C(=O)c1cccc(N3C[C@@H](NS(C)(=O)=O)C[C@@H]3C)n1)CC2 [Example 392]	0.4 to 0.8 µM
COc1cccc(Oc2cccc(C(=O)N3CCc4cc(C(=O)NC5CC5)sc4-c4ccccc43)n2)c1 [Example 393]	> 0.8 µM
COc1ncccc1Oc1cccc(C(=O)N2CCc3cc(C(=O)NC4CC4)sc3-c3ccccc32)n1 [Example 394]	> 0.8 µM
Cc1cccc(F)c1NC(=O)c1cc2c(s1)-c1cc(F)ccc1N(C(=O)c1cccc(N3CCOc4ccccc4C3)n1)CC2 [Example 395]	< 0.4 µM
Cc1cccc(F)c1NC(=O)c1ccc2c(c1)CCN(C(=O)c1cccc(N3CCCOCC3)n1)c1ccccc1-2 [Example 396]	> 0.8 µM
O=C(NC1CC1)c1ccc2c(c1)CCN(C(=O)c1cccc(N3CCOc4ccccc4C3)n1)c1ccccc1-2 [Example 397]	> 0.8 µM
NNC(=O)c1ccc2c(c1)CCN(C(=O)c1cccc(N3CCOc4ccccc4C3)n1)c1ccccc1-2 [Example 398]	> 0.8 µM
Cc1cccc(F)c1NC(=O)c1cc2c(s1)-c1ccccc1N(C(=O)c1cccc(N3CCOCC(F)(F)C3)n1)CC2 [Example 400]	< 0.4 µM
Cc1cccc(F)c1NC(=O)c1cc2c(s1)-c1ccccc1N(C(=O)c1cccc(N3CCCOCC3=O)n1)CC2 [Example 401]	> 0.8 µM
Cc1cccc(F)c1NC(=O)c1cc2c(s1)-c1ccccc1N(C(=O)c1cccc(N3CCCOC(C)(C)C3)n1)CC2 [Example 402]	< 0.4 µM
Cc1cccc(F)c1NC(=O)c1cc2c(s1)-c1ccccc1N(C(=O)c1cccc(N3CCCC(F)(F)CC3)n1)CC2 [Example 403]	< 0.4 µM
Cc1cccc(F)c1NC(=O)c1cc2c(s1)-c1ccccc1N(C(=O)c1cccc(N3CCCOc4ccccc43)n1)CC2 [Example 404]	< 0.4 µM
Cc1cccc2c1CN(c1cccc(C(=O)N3CCc4cc(C(=O)Nc5c(C)cccc5F)sc4-c4ccccc43)n1)CCO2 [Example 405]	< 0.4 µM

Compound	EC50
Cc1cccc(F)c1NC(=O)c1cc2c(s1)-c1ccccc1N(C(=O)c1cccc(N3CCCS(=O)(=O)c4ccccc43)n1)CC2 [Example 406]	0.4 to 0.8 µM
COc1ccc(=O)n(-c2cccc(C(=O)N3CCc4cc(C(=O)Nc5c(C)cccc5F)sc4-c4ccccc43)n2)c1 [Example 407]	> 0.8 µM
COc1ccc(Oc2cccc(C(=O)N3CCc4cc(C(=O)Nc5c(C)cccc5F)sc4-c4ccccc43)n2)nc1 [Example 408]	> 0.8 µM
COc1cccc(Nc2cccc(C(=O)N3CCc4cc(C(=O)NC5CC5)sc4-c4ccccc43)n2)n1 [Example 409]	> 0.8 µM
COc1ncccc1Nc1cccc(C(=O)N2CCc3cc(C(=O)NC4CC4)sc3-c3ccccc32)n1 [Example 410]	> 0.8 µM
O=C(NC1CC1)c1cc2c(s1)-c1ccccc1N(C(=O)c1cccc(Nc3cccc4c3C(=O)NC4)n1)CC2 [Example 411]	> 0.8 µM
CN1Cc2cccc(Nc3cccc(C(=O)N4CCc5cc(C(=O)NC6CC6)sc5-c5ccccc54)n3)c2C1=O [Example 412]	> 0.8 µM
Nc1cccc2c1C(=O)N(c1cccc(C(=O)N3CCc4cc(C(=O)NC5CC5)sc4-c4ccccc43)n1)C2 [Example 413]	> 0.8 µM
O=C(NC1CC1)c1cc2c(s1)-c1ccccc1N(C(=O)c1cccc(N3CCOc4ccccc4C3=O)n1)CC2 [Example 414]	> 0.8 µM
COc1ccn(-c2cccc(C(=O)N3CCc4cc(C(=O)Nc5c(C)cccc5F)sc4-c4ccccc43)n2)c(=O)c1 [Example 415]	> 0.8 µM
Cc1cccc(F)c1NC(=O)c1cc2c(s1)-c1ccccc1N(C(=O)c1cccc(N3CCOC4(CCCC4)C3)n1)CC2 [Example 416]	< 0.4 µM
Cc1cccc(F)c1NC(=O)c1cc2c(s1)-c1ccccc1N(C(=O)c1cccc(N3CCOc4ccc(Cl)cc4C3)n1)CC2 [Example 417]	< 0.4 µM
Cc1cccc(F)c1NC(=O)c1cc2c(s1)-c1ccccc1N(C(=O)c1cccc(N3CCS(=O)(=O)CC3)n1)CC2 [Example 418]	< 0.4 µM
Cc1cccc(F)c1NC(=O)c1cc2c(s1)-c1ccccc1N(C(=O)c1cccc(N3CCS(=O)(=O)c4ccccc4C3)n1)CC2 [Example 419]	< 0.4 µM
COCC(Nc1cccc(C(=O)N2CCc3cc(C(=O)Nc4c(C)cccc4F)sc3-c3ccccc32)n1)C1CC1 (stereo not drawn) [Example 420]	0.4 to 0.8 µM
COCC(C)(C)CNc1cccc(C(=O)N2CCc3cc(C(=O)Nc4c(C)cccc4F)sc3-c3ccccc32)n1 [Example 421]	< 0.4 µM
Cc1cccc(F)c1NC(=O)c1cc2c(s1)-c1ccccc1N(C(=O)c1cccc(NCCS(C)(=O)=O)n1)CC2 [Example 422]	> 0.8 µM
COCCN(c1cccc(C(=O)N2CCc3cc(C(=O)Nc4c(C)cccc4F)sc3-c3ccccc32)n1)S(C)(=O)=O [Example 423]	> 0.8 µM
Cc1cccc(F)c1NC(=O)c1cc2c(s1)-c1ccccc1N(C(=O)c1cccc(N3C(=O)OC[C@H]3c3ccccc3)n1)CC2 [Example 424]	> 0.8 µM
Cc1cccc(F)c1NC(=O)c1cc2c(s1)-c1ccccc1N(C(=O)c1cccc(N3C(=O)OC[C@@H]3c3ccccc3)n1)CC2 [Example 425]	< 0.4 µM
Cc1cccc(F)c1NC(=O)c1cc2c(s1)-c1ccccc1N(C(=O)c1cccc(N3CC4(COC4)C3)n1)CC2 [Example 426]	> 0.8 µM
